We go through 34 compounds from patent publication US11427558B1, “Indazoles and azaindazoles as LRRK2 inhibitors” (ESCAPE Bio, Inc., priority 2019, dated 2022).

Assay [1] deals with Recombinant wild type LRRK2 protein (Homo sapiens (Human), UniProt Q5S007). As to the kind of experiment: LRRK2 kinase activity, LanthaScreen TR-FRET assay (wild type). Conditions: LRRKtide 400 nM, 25 μM ATP, 60 min; read-out: LRRK2 WT IC50. The assay is classed as biochemical. In short, it runs like this:
(§1)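 Recombinant human wild-type or G2019S LRRK2 phosphorylated fluorescein-labelled LRRKtide (ERM-based) with ATP and serially diluted compound for 60 min at room temperature.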
Background: Time-resolved FRET reads energy transfer from a long-lived donor to a nearby acceptor.

The target of assay [2] is Recombinant G2019S-LRRK2 protein (Homo sapiens (Human), UniProt Q5S007, G2019S). Briefly: LRRK2 kinase activity, LanthaScreen TR-FRET assay (G2019S). It is filed as biochemical. Conditions: LRRKtide 400 nM, 25 μM ATP, 60 min. An outline of the steps:
as §1

pIC50: −log10 of the molar value.

Chain of Recombinant wild type LRRK2 protein (Q5S007 whole entry): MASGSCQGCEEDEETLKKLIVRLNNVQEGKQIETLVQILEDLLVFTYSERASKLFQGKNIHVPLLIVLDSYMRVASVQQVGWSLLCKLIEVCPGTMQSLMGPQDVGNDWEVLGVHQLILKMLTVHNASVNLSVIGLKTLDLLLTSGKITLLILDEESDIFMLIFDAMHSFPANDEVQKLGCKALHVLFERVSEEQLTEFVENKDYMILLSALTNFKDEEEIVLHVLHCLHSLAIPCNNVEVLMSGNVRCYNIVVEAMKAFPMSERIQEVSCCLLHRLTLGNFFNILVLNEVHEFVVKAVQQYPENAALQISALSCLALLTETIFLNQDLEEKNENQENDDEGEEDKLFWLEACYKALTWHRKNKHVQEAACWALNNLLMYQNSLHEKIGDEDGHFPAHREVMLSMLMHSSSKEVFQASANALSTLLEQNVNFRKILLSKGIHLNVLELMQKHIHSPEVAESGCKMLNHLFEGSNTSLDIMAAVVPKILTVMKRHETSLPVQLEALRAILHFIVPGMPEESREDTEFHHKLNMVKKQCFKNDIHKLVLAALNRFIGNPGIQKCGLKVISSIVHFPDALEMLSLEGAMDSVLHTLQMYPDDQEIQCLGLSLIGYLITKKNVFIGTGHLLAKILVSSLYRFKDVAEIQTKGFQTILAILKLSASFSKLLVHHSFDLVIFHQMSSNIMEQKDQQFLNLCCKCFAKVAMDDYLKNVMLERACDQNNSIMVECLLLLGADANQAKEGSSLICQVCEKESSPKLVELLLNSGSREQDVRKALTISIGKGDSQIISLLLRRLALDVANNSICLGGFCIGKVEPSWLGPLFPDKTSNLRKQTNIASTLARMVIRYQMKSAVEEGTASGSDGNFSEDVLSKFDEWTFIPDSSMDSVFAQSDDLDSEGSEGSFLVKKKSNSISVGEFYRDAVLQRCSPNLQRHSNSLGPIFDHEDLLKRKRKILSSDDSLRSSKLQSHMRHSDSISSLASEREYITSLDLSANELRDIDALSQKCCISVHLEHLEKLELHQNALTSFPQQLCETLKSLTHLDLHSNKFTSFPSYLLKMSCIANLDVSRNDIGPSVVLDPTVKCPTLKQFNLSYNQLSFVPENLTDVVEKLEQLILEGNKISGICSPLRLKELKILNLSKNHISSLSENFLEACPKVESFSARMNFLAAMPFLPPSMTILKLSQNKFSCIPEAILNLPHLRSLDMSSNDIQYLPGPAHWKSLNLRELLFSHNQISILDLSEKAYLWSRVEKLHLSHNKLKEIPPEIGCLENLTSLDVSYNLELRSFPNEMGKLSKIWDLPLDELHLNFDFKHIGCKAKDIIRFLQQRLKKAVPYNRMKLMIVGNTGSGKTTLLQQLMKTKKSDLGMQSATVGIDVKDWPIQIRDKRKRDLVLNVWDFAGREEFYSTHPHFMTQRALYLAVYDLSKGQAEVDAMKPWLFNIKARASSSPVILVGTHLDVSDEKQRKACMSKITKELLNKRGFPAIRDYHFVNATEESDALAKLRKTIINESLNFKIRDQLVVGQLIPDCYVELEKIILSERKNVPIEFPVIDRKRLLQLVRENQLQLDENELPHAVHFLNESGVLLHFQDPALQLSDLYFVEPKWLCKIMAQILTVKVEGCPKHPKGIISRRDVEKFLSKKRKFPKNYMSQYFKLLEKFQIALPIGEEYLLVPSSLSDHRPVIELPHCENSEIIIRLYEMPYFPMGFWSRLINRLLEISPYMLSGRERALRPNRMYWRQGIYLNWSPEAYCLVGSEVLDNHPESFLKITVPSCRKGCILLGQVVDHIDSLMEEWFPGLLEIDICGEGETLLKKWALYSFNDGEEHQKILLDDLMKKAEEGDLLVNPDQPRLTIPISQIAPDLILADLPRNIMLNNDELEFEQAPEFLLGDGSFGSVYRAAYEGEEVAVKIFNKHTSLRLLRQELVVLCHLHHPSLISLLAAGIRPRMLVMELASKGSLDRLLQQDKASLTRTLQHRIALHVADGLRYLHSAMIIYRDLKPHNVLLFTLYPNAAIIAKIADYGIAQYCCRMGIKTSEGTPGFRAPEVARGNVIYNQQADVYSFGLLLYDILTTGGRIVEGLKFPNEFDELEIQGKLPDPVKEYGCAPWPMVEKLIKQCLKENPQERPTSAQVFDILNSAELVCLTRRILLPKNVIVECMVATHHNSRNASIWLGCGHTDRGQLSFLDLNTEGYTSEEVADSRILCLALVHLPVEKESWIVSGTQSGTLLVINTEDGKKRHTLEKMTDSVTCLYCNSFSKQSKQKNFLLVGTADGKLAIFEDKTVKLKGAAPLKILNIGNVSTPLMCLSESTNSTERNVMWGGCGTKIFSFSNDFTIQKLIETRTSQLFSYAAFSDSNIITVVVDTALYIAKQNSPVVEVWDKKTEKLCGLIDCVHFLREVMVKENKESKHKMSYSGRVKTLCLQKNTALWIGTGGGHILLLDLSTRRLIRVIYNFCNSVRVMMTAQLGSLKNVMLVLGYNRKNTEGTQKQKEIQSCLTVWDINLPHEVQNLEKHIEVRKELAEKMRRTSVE
Chain of Recombinant G2019S-LRRK2 protein (Q5S007 whole entry G2019S): as the sequence (Q5S007 whole entry) above, with G2019S counted along it

The term pIC50 denotes the negative decadic logarithm of the IC50, by convention in mol/L. As to `C=C(C)c1n[nH]c2ccc(NC(=O)c3ncc(C#N)c(C)c3C)cc12` [Example 267, 5-Cyano-3,4-dimethyl-N-(3-(prop-1-en-2-yl)-1H-indazol-5-yl)picolinamide], the negative logarithm of the IC50 (pIC50) in assay [1] is 6.00 to 7.00; in assay [2], above 7.00.
On to `COc1cncc(-c2n[nH]c3ccc(NC(=O)c4ncc(C#N)cc4C)cc23)c1` [Example 68, 5-Cyano-N-(3-(5-methoxypyridin-3-yl)-1H-indazol-5-yl)-3-methylpicolinamide], for which the negative-log IC50 (pIC50) in assay [1] was 6.00 to 7.00; in assay [2], above 7.00.
With `Cc1c(C#N)cnc(C(=O)Nc2ccc3[nH]nc(-c4cccn(C)c4=O)c3c2)c1C` [Example 280, 5-Cyano-3,4-dimethyl-N-(3-(1-methyl-2-oxo-1,2-dihydropyridin-3-yl)-1H-indazol-5-yl)picolinamide], the pIC50 in assay [1] and in assay [2] was 5.00 to 6.00 throughout.
For `Cc1c(C#N)ccc(F)c1C(=O)Nc1ccc2[nH]nc(-c3ccoc3)c2c1` [Example 134, 3-Cyano-6-fluoro-N-(3-(furan-3-yl)-1H-indazol-5-yl)-2-methylbenzamide], the pIC50 in assay [1] and in assay [2] was above 7.00 each time.
Regarding `Cc1c(C#N)nn(C)c1C(=O)Nc1ccc2[nH]nc(-c3cnoc3)c2c1` [Example 196, 3-Cyano-N-(3-(isoxazol-4-yl)-1H-indazol-5-yl)-1,4-dimethyl-1H-pyrazole-5-carboxamide], the negative logarithm of the IC50 (pIC50) was 6.00 to 7.00 in assay [1] and above 7.00 in assay [2].
As for `Cc1cc(C#N)c(Cl)nc1C(=O)Nc1ccc2[nH]nc(C)c2c1` [Example 307, 6-Chloro-5-cyano-3-methyl-N-(3-methyl-1H-indazol-5-yl)picolinamide], the values for the negative-log IC50 (pIC50) in assay [1] and in assay [2] were 6.00 to 7.00 and above 7.00, respectively.
As for `Cc1cc(C#N)c(C(F)(F)F)nc1C(=O)Nc1ccc2[nH]nc(-c3cnco3)c2c1` [Example 288, 5-Cyano-3-methyl-N-(3-(oxazol-5-yl)-1H-indazol-5-yl)-6-(trifluoromethyl)picolinamide], the negative logarithm of the IC50 (pIC50) in assay [1] and in assay [2] was above 7.00 throughout.
Regarding `Cc1c(C#N)ccc(F)c1C(=O)Nc1ccc2[nH]nc(C)c2c1` [Example 316, 3-Cyano-6-fluoro-2-methyl-N-(3-methyl-1H-indazol-5-yl)benzamide], the negative logarithm of the IC50 (pIC50) in assay [1] was 6.00 to 7.00; in assay [2] it was above 7.00.
Regarding `Cc1cc(C#N)cnc1C(=O)Nc1ccc2[nH]nc(-c3cncc(OC(C)C)c3)c2c1` [Example 109, 5-Cyano-N-(3-(5-isopropoxypyridin-3-yl)-1H-indazol-5-yl)-3-methylpicolinamide], the negative logarithm of the IC50 (pIC50) in assay [1] is 6.00 to 7.00; in assay [2] it was above 7.00.
As for `Cc1c(C(=O)Nc2ccc3[nH]nc(-c4cnco4)c3c2)cc(C#N)c(=O)n1C` [Example 213, 5-Cyano-1,2-dimethyl-N-(3-(oxazol-5-yl)-1H-indazol-5-yl)-6-oxo-1,6-dihydropyridine-3-carboxamide], the pIC50 in assay [1] and in assay [2] was above 7.00 throughout.
In the case of `Cc1c(C(=O)Nc2ccc3[nH]nc(C(C)C)c3c2)nc(Cl)c(C#N)c1C` [Example 270, 6-Chloro-5-cyano-N-(3-isopropyl-1H-indazol-5-yl)-3,4-dimethylpicolinamide], the pIC50 in assay [1] and in assay [2] was above 7.00 each time.
Consider `Cc1c(C(=O)Nc2ccc3[nH]nc(-c4ccoc4)c3c2)noc1C#N` [Example 179, 5-Cyano-N-(3-(furan-3-yl)-1H-indazol-5-yl)-4-methylisoxazole-3-carboxamide], for which the pIC50 in assay [1] and in assay [2] was above 7.00 in each case.
In the case of `Cc1cc(C#N)cnc1C(=O)Nc1ccc2[nH]nc(-c3ccc(N4CCN(C)CC4)cc3)c2c1` [Example 45, 5-Cyano-3-methyl-N-(3-(4-(4-methylpiperazin-1-yl)phenyl)-1H-indazol-5-yl)picolinamide], the pIC50 in assay [1] and in assay [2] was above 7.00 throughout.
In the case of `Cc1cc(C#N)cnc1C(=O)Nc1ccc2[nH]nc(-c3ccnc(Br)c3)c2c1` [Example 103, N-(3-(2-Bromopyridin-4-yl)-1H-indazol-5-yl)-5-cyano-3-methylpicolinamide], the negative logarithm of the IC50 (pIC50) in assay [1] and in assay [2] was above 7.00 throughout.
Consider `N#Cc1cccc(C(=O)Nc2ccc3[nH]nc(-c4cnn(C(F)F)c4)c3c2)c1C(F)(F)F` [Example 192, 3-Cyano-N-(3-(1-(difluoromethyl)-1H-pyrazol-4-yl)-1H-indazol-5-yl)-2-(trifluoromethyl)benzamide], for which the pIC50 in assay [1] and in assay [2] was above 7.00 in each case.
Consider `Cc1nc(C(=O)Nc2ccc3[nH]nc(-c4cnn(C(F)F)c4)c3c2)c(C)c(C)c1C#N` [Example 185, 5-Cyano-N-(3-(1-(difluoromethyl)-1H-pyrazol-4-yl)-1H-indazol-5-yl)-3,4,6-trimethylpicolinamide], for which the pIC50 in assay [1] and in assay [2] was above 7.00 throughout.
Turning to `Cc1cc(C#N)cnc1C(=O)Nc1ccc2[nH]nc(-c3ccn(C)c(=O)c3)c2c1` [Example 152, 5-cyano-3-methyl-N-(3-(1-methyl-2-oxo-1,2-dihydropyridin-4-yl)-1H-indazol-5-yl)picolinamide], the negative-log IC50 (pIC50) was 5.00 to 6.00 in assay [1] and 6.00 to 7.00 in assay [2].
`COc1cc(C#N)cc(C)c1C(=O)Nc1ccc2[nH]nc(-c3cnn(C(F)F)c3)c2c1` [Example 201, 4-Cyano-N-(3-(1-(difluoromethyl)-1H-pyrazol-4-yl)-1H-indazol-5-yl)-2-methoxy-6-methylbenzamide]: the pIC50 in assay [1] and in assay [2] was above 7.00 each time.
Consider `Cc1cc(C#N)cnc1C(=O)Nc1ccc2[nH]nc(-c3cncc(Cl)c3)c2c1` [Example 121, N-(3-(5-Chloropyridin-3-yl)-1H-indazol-5-yl)-5-cyano-3-methylpicolinamide], for which the pIC50 is 6.00 to 7.00 in assay [1] and above 7.00 in assay [2].
For `COc1cc(C#N)cnc1C(=O)Nc1ccc2[nH]nc(-c3ccoc3)c2c1` [Example 69, 5-Cyano-N-(3-(furan-3-yl)-1H-indazol-5-yl)-3-methoxypicolinamide], the pIC50 in assay [1] was 6.00 to 7.00; in assay [2], above 7.00.
Regarding `Cc1cc(C#N)cnc1C(=O)Nc1ccc2[nH]nc(-n3ccoc3=O)c2c1` [Example 242, 5-Cyano-3-methyl-N-(3-(2-oxooxazol-3(2H)-yl)-1H-indazol-5-yl)picolinamide], the negative logarithm of the IC50 (pIC50) was 5.00 to 6.00 in assay [1] and above 7.00 in assay [2].
For `CCc1nc(C(=O)Nc2ccc3[nH]nc(C4CC4)c3c2)c(C)c(C)c1C#N` [Example 333, 5-Cyano-N-(3-cyclopropyl-1H-indazol-5-yl)-6-ethyl-3,4-dimethylpicolinamide], the values for the pIC50 in assay [1] and in assay [2] were 6.00 to 7.00 and above 7.00, respectively.
As for `N#Cc1cccc(C(=O)Nc2ccc3[nH]nc(-c4ccoc4)c3c2)c1C(F)(F)F` [Example 173, 3-Cyano-N-(3-(furan-3-yl)-1H-indazol-5-yl)-2-(trifluoromethyl)benzamide], the negative-log IC50 (pIC50) in assay [1] and in assay [2] was above 7.00 throughout.
`Cc1n[nH]c2ccc(NC(=O)c3cccc(C#N)c3C(C)C)cc12` [Example 295, 3-Cyano-2-isopropyl-N-(3-methyl-1H-indazol-5-yl)benzamide]: the results for the negative logarithm of the IC50 (pIC50) in assay [1] and in assay [2] were 6.00 to 7.00 and above 7.00, respectively.
For `Cc1c(C#N)cnc(C(=O)Nc2ccc3[nH]nc(/C=C/C4CC4)c3c2)c1C` [Example 233, (E)-5-Cyano-N-(3-(2-cyclopropylvinyl)-1H-indazol-5-yl)-3,4-dimethylpicolinamide], the negative logarithm of the IC50 (pIC50) in assay [1] and in assay [2] was above 7.00 each time.
As to `N#Cc1cnc(C(=O)Nc2ccc3[nH]nc(-c4ccoc4)c3c2)cc1Cl` [Example 66, 4-Chloro-5-cyano-N-(3-(furan-3-yl)-1H-indazol-5-yl)picolinamide], the pIC50 in assay [1] and in assay [2] was 6.00 to 7.00 each time.
In the case of `Cc1c(C#N)cnc(C(=O)Nc2ccc3[nH]nc(-c4ccncn4)c3c2)c1C` [Example 230, 5-Cyano-3,4-dimethyl-N-(3-(pyrimidin-4-yl)-1H-indazol-5-yl)picolinamide], the values for the pIC50 in assay [1] and in assay [2] were 6.00 to 7.00 and above 7.00, respectively.
In the same order, the values of `Cc1cccc(-c2n[nH]c3ccc(NC(=O)c4ncc(C#N)cc4C)cc23)c1` [Example 58, 5-Cyano-3-methyl-N-(3-(m-tolyl)-1H-indazol-5-yl)picolinamide] are 6.00 to 7.00 and above 7.00.
For the compound `N#Cc1cnc(C(=O)Nc2ccc3[nH]nc(-c4ccoc4)c3c2)s1` [Example 65, 5-Cyano-N-(3-(furan-3-yl)-1H-indazol-5-yl)thiazole-2-carboxamide], the pIC50 in assay [1] and in assay [2] was above 7.00 in each case.
In the case of `Cc1nn(C)c(C#N)c1C(=O)Nc1ccc2[nH]nc(-c3ccoc3)c2c1` [Example 81, 5-Cyano-N-(3-(furan-3-yl)-1H-indazol-5-yl)-1,3-dimethyl-1H-pyrazole-4-carboxamide], the negative logarithm of the IC50 (pIC50) in assay [1] and in assay [2] was above 7.00 in each case.
For the compound `CCc1n[nH]c2ccc(NC(=O)c3ncc(C#N)c(C(F)(F)F)c3C)cc12` [Example 284, 5-Cyano-N-(3-ethyl-1H-indazol-5-yl)-3-methyl-4-(trifluoromethyl)picolinamide], the negative logarithm of the IC50 (pIC50) in assay [1] was 5.00 to 6.00; in assay [2], above 7.00.
Take `COc1cc(C#N)ccc1C(=O)Nc1ccc2[nH]nc(-c3ccoc3)c2c1` [Example 15, 4-Cyano-N-(3-(furan-3-yl)-1H-indazol-5-yl)-2-methoxybenzamide]: the pIC50 in assay [1] was 6.00 to 7.00; in assay [2], above 7.00.
On to `N#Cc1cccc(C(=O)Nc2ccc3[nH]nc(-c4cnco4)c3c2)c1Cl` [Example 209, 2-chloro-3-cyano-N-(3-(oxazol-5-yl)-1H-indazol-5-yl)benzamide], for which the pIC50 in assay [1] and in assay [2] was above 7.00 each time.
Consider `Cc1cc(C#N)cnc1C(=O)Nc1ccc2[nH]nc(-c3ccnc(C#N)c3)c2c1` [Example 113, 5-Cyano-N-(3-(2-cyanopyridin-4-yl)-1H-indazol-5-yl)-3-methylpicolinamide], for which the values for the pIC50 in assay [1] and in assay [2] were 6.00 to 7.00 and above 7.00, respectively.
